Patent publication US8440613B2, “Controlling diseases caused by trichomonadida” (Bayer Intellectual Property GmbH, priority 2008, dated 2013)

Legend:
Heterakis spumosa [1] = assay: Anthelmintic activity against Heterakis spumosa in mice; assay type: in vivo; settings: Heterakis spumosa (mouse); treated on four consecutive days 35 days post-infection; worms counted day 7 after treatment
Experimental: Male mice (strain Bor CFW, body weight between 25 and 30 g) are kept in Makrolon cages (3 animals/cage) and fed ad lib with water and SNIFF rat food (10 mm pellets). Mice are infected with Heterakis spumosa by oral administration of 90 embryonated eggs. The eggs had been obtained from female worms which had been isolated from the mices colon 40 days post-infection. The eggs were incubated for a further 3 weeks at 37° C. 35 days post-infection, the mice were treated with the respective dose of PF1022A or emodepside on four consecutive days. PF1022A is suspended in Cremophor EL. On day 7 after the treatment, the mice are sacrificed, the ileum/caecum/colon region is removed, and the worms are counted with the naked eye. The ratio of the number of expelled worms in percent of the total number of worms in untreated, infected control animals is defined as the measure for the anthelmintic activity.

Heterakis spumosa [2] = settings: murine nematode Heterakis spumosa; oral dose; refs (13, 15); cited from earlier work
histomonad field strain = assay: Cage experiments; histomonad activity in turkeys; assay type: in vivo; settings: day -4 to +14; for Average lesions in the appendix / Infection-related lesions in the liver: score 0=no lesions, 4=severe lesions
Experimental: Histomonad-free male turkeys aged 10 days received nifurtimox or the comparative compound nitarson in the concentration given in “ppm” together with the feed from day −4 (=4 days prior to infection) to day 14. Infection is carried out on day 0, 10 animals are kept per group cage. 1 to 3 such groups are employed per dose.
The infection is carried out with a histomonad field strain which is passaged in the laboratory and stored in liquid nitrogen. On day 0, in each case 5 animals of a cage (with the exception of the noninfected control) are infected intracloacally with 250 000 histomonads in each case 1 ml of Dwyer's medium (=direct infection). After a few days, these infected animals excrete fresh histomonads and thus transmit the pathogen to the remaining 5 animals of the cage (=indirect infection).
To assess the activity, the criteria of McDougald and Hu 2001 (7) are taken into consideration: • the infection-caused mortality • the weight gain from the beginning to the end of the experiment • feed consumption • feed conversion • macroscopic assessment of the infection-related lesions in the appendices (caecum) and in the liver. In this assessment, score 0=no lesions and score 4=severe lesions.

Ascaridia galli = settings: cited from earlier work
[3] = direct infection no, nifurtimox 30 ppm in feed, study of Table 1
[4] = direct infection no, nifurtimox 60 ppm in feed, study of Table 1
[5] = direct infection no, nifurtimox 100 ppm in feed, study of Table 2
[6] = direct infection no, nifurtimox 120 ppm in feed, study of Table 1
[7] = direct infection no, nifurtimox 200 ppm in feed, study of Table 1
[8] = direct infection no, nifurtimox 200 ppm in feed, study of Table 2
[9] = direct infection no, nifurtimox 300 ppm in feed, study of Table 2
[10] = direct infection no, nifurtimox 400 ppm in feed, study of Table 2
[11] = direct infection yes, nifurtimox 30 ppm in feed, study of Table 1
[12] = direct infection yes, nifurtimox 60 ppm in feed, study of Table 1
[13] = direct infection yes, nifurtimox 100 ppm in feed, study of Table 2
[14] = direct infection yes, nifurtimox 120 ppm in feed, study of Table 1
[15] = direct infection yes, nifurtimox 200 ppm in feed, study of Table 1
[16] = direct infection yes, nifurtimox 200 ppm in feed, study of Table 2
[17] = direct infection yes, nifurtimox 300 ppm in feed, study of Table 2
[18] = direct infection yes, nifurtimox 400 ppm in feed, study of Table 2
[19] = nifurtimox 30 ppm in feed, study of Table 1
[20] = nifurtimox 60 ppm in feed, study of Table 1
[21] = nifurtimox 100 ppm in feed, study of Table 2
[22] = nifurtimox 120 ppm in feed, study of Table 1
[23] = nifurtimox 200 ppm in feed, study of Table 1
[24] = nifurtimox 200 ppm in feed, study of Table 2
[25] = nifurtimox 300 ppm in feed, study of Table 2
[26] = nifurtimox 400 ppm in feed, study of Table 2
[27] = direct infection no, nitarsone 187.5 ppm in feed, study of Table 1
[28] = direct infection no, nitarsone 187.5 ppm in feed, study of Table 2
[29] = direct infection yes, nitarsone 187.5 ppm in feed, study of Table 1
[30] = direct infection yes, nitarsone 187.5 ppm in feed, study of Table 2
[31] = nitarsone 187.5 ppm in feed, study of Table 1
[32] = nitarsone 187.5 ppm in feed, study of Table 2

CC(C)CC1C(=O)OC(Cc2ccc(N3CCOCC3)cc2)C(=O)N(C)C(CC(C)C)C(=O)OC(C)C(=O)N(C)C(CC(C)C)C(=O)OC(Cc2ccc(N3CCOCC3)cc2)C(=O)N(C)C(CC(C)C)C(=O)OC(C)C(=O)N1C [Emodepside, cyclo[(R)-lactoyl-N-methyl-L-leucyl-(R)-3-(p-morpholinophenyl)lactoyl-N-methyl-L-leucyl-(R)-lactoyl-N-methyl-L-leucyl-(R)-3-(p-morpholinophenyl)lactoyl-N-methyl-L-leucyl]]
Dose with full activity (Heterakis spumosa [1]): 1 to 10 mg/kg | Dose at which active against Heterakis spumosa (Heterakis spumosa [2]): 1 to 10 mg/kg

CC1CS(=O)(=O)CCN1N=Cc1ccc([N+](=O)[O-])o1 (stereo not drawn) [nifurtimox]
Mean weight gain (g) between day 0 and the time of death (histomonad field strain; [3]): 730 g | Mean weight gain (g) between day 0 and the time of death (histomonad field strain; [4]): 838 g | Mean weight gain (g) between day 0 and the time of death (histomonad field strain; [5]): 581 g | Mean weight gain (g) between day 0 and the time of death (histomonad field strain; [6]): 744 g | Mean weight gain (g) between day 0 and the time of death (histomonad field strain; [7]): 744 g | Mean weight gain (g) between day 0 and the time of death (histomonad field strain; [8]): 525 g | Mean weight gain (g) between day 0 and the time of death (histomonad field strain; [9]): 750 g | Mean weight gain (g) between day 0 and the time of death (histomonad field strain; [10]): 832 g | Mean weight gain (g) between day 0 and the time of death (histomonad field strain; [11]): 235 g | Mean weight gain (g) between day 0 and the time of death (histomonad field strain; [12]): 304 g | Mean weight gain (g) between day 0 and the time of death (histomonad field strain; [13]): 135 g | Mean weight gain (g) between day 0 and the time of death (histomonad field strain; [14]): 182 g | Mean weight gain (g) between day 0 and the time of death (histomonad field strain; [15]): 264 g | Mean weight gain (g) between day 0 and the time of death (histomonad field strain; [16]): 270 g | Mean weight gain (g) between day 0 and the time of death (histomonad field strain; [17]): 450 g | Mean weight gain (g) between day 0 and the time of death (histomonad field strain; [18]): 691 g | Mean feed consumption between day 0 and day 14 (histomonad field strain; [19]): 9.00 kg | Mean feed conversion between day 0 and day 14 (histomonad field strain; [19]): 1.88 | Mortality caused by histomoniasis (histomonad field strain; [19]): 5 | Mean feed consumption between day 0 and day 14 (histomonad field strain; [20]): 9.68 kg | Mean feed conversion between day 0 and day 14 (histomonad field strain; [20]): 1.70 | Mortality caused by histomoniasis (histomonad field strain; [20]): 6 | Mean feed consumption between day 0 and day 14 (histomonad field strain; [21]): 6.69 kg | Mean feed conversion between day 0 and day 14 (histomonad field strain; [21]): 2.32 | Mortality caused by histomoniasis (histomonad field strain; [21]): 13 | Mean feed consumption between day 0 and day 14 (histomonad field strain; [22]): 8.70 kg | Mean feed conversion between day 0 and day 14 (histomonad field strain; [22]): 1.88 | Mortality caused by histomoniasis (histomonad field strain; [22]): 5 | Mean feed consumption between day 0 and day 14 (histomonad field strain; [23]): 9.59 kg | Mean feed conversion between day 0 and day 14 (histomonad field strain; [23]): 1.91 | Mortality caused by histomoniasis (histomonad field strain; [23]): 4 | Mean feed consumption between day 0 and day 14 (histomonad field strain; [24]): 9.14 kg | Mean feed conversion between day 0 and day 14 (histomonad field strain; [24]): 2.33 | Mortality caused by histomoniasis (histomonad field strain; [24]): 4 | Mean feed consumption between day 0 and day 14 (histomonad field strain; [25]): 10.40 kg | Mean feed conversion between day 0 and day 14 (histomonad field strain; [25]): 1.83 | Mortality caused by histomoniasis (histomonad field strain; [25]): 2 | Mean feed consumption between day 0 and day 14 (histomonad field strain; [26]): 11.79 kg | Mean feed conversion between day 0 and day 14 (histomonad field strain; [26]): 1.55 | Mortality caused by histomoniasis (histomonad field strain; [26]): 0 | Average lesions in the appendix (histomonad field strain; [3]): 0.29 | Infection-related lesions in the liver (histomonad field strain; [3]): 0.29 | Average lesions in the appendix (histomonad field strain; [4]): 0.00 | Infection-related lesions in the liver (histomonad field strain; [4]): 0.00 | Average lesions in the appendix (histomonad field strain; [5]): 1.08 | Infection-related lesions in the liver (histomonad field strain; [5]): 0.58 | Average lesions in the appendix (histomonad field strain; [6]): 0.53 | Infection-related lesions in the liver (histomonad field strain; [6]): 0.27 | Average lesions in the appendix (histomonad field strain; [7]): 0.47 | Infection-related lesions in the liver (histomonad field strain; [7]): 0.13 | Average lesions in the appendix (histomonad field strain; [8]): 1.80 | Infection-related lesions in the liver (histomonad field strain; [8]): 0.73 | Average lesions in the appendix (histomonad field strain; [9]): 0.79 | Infection-related lesions in the liver (histomonad field strain; [9]): 0.07 | Average lesions in the appendix (histomonad field strain; [10]): 0.27 | Infection-related lesions in the liver (histomonad field strain; [10]): 0.00 | Average lesions in the appendix (histomonad field strain; [11]): 3.73 | Infection-related lesions in the liver (histomonad field strain; [11]): 2.53 | Average lesions in the appendix (histomonad field strain; [12]): 3.53 | Infection-related lesions in the liver (histomonad field strain; [12]): 2.53 | Average lesions in the appendix (histomonad field strain; [13]): 3.79 | Infection-related lesions in the liver (histomonad field strain; [13]): 2.00 | Average lesions in the appendix (histomonad field strain; [14]): 4.00 | Infection-related lesions in the liver (histomonad field strain; [14]): 1.80 | Average lesions in the appendix (histomonad field strain; [15]): 3.80 | Infection-related lesions in the liver (histomonad field strain; [15]): 1.33 | Average lesions in the appendix (histomonad field strain; [16]): 3.67 | Infection-related lesions in the liver (histomonad field strain; [16]): 1.33 | Average lesions in the appendix (histomonad field strain; [17]): 2.53 | Infection-related lesions in the liver (histomonad field strain; [17]): 0.40 | Average lesions in the appendix (histomonad field strain; [18]): 1.20 | Infection-related lesions in the liver (histomonad field strain; [18]): 0.00

O=[N+]([O-])c1ccc([As](=O)(O)O)cc1 [Nita., nitarsone]
Mean weight gain (g) between day 0 and the time of death (histomonad field strain; [27]): 782 g | Mean weight gain (g) between day 0 and the time of death (histomonad field strain; [28]): 725 g | Mean weight gain (g) between day 0 and the time of death (histomonad field strain; [29]): 541 g | Mean weight gain (g) between day 0 and the time of death (histomonad field strain; [30]): 426 g | Mean feed consumption between day 0 and day 14 (histomonad field strain; [31]): 11.64 kg | Mean feed conversion between day 0 and day 14 (histomonad field strain; [31]): 1.77 | Mortality caused by histomoniasis (histomonad field strain; [31]): 1 | Mean feed consumption between day 0 and day 14 (histomonad field strain; [32]): 9.82 kg | Mean feed conversion between day 0 and day 14 (histomonad field strain; [32]): 1.79 | Mortality caused by histomoniasis (histomonad field strain; [32]): 2 | Average lesions in the appendix (histomonad field strain; [27]): 0.00 | Infection-related lesions in the liver (histomonad field strain; [27]): 0.00 | Average lesions in the appendix (histomonad field strain; [28]): 0.29 | Infection-related lesions in the liver (histomonad field strain; [28]): 0.21 | Average lesions in the appendix (histomonad field strain; [29]): 2.26 | Infection-related lesions in the liver (histomonad field strain; [29]): 0.13 | Average lesions in the appendix (histomonad field strain; [30]): 3.07 | Infection-related lesions in the liver (histomonad field strain; [30]): 0.79

CC(C)CC1C(=O)OC(Cc2ccccc2)C(=O)N(C)C(CC(C)C)C(=O)OC(C)C(=O)N(C)C(CC(C)C)C(=O)OC(Cc2ccccc2)C(=O)N(C)C(CC(C)C)C(=O)OC(C)C(=O)N1C (stereo not drawn) [PF1022A]
Dose with full activity (Ascaridia galli; Ascaridia galli (chicken)): 2 mg/kg | Dose at which the compound acts against Ascaridia galli (Ascaridia galli; Ascaridia galli in chickens, ref (16)): 2 mg/kg | Dose with full activity (Heterakis spumosa [1]): 50 mg/kg | Dose at which active against Heterakis spumosa (Heterakis spumosa [2]): 50 mg/kg
